Article PMC3914206

Experiments:
panel of 442 kinases [1] = molecular target: T1, panel of 442 kinases (Homo sapiens, UniProt Q8WU08); format: binding; conditions: kinase YANK1; compound concentration 10 µM
T1 construct: purchased KINOMEscan
From the text: (§1) We assessed the selectivity of members of this scaffold using the KINOMEscan methodology across a near comprehensive panel of 442 kinases [[18,27]].

panel of 442 kinases [2] = molecular target: T2, panel of 442 kinases (Homo sapiens, UniProt Q9UL54); format: binding; conditions: kinase TAOK2; compound concentration 10 µM
T2 construct: purchased KINOMEscan
T2 sequence (Q9UL54 1-1235): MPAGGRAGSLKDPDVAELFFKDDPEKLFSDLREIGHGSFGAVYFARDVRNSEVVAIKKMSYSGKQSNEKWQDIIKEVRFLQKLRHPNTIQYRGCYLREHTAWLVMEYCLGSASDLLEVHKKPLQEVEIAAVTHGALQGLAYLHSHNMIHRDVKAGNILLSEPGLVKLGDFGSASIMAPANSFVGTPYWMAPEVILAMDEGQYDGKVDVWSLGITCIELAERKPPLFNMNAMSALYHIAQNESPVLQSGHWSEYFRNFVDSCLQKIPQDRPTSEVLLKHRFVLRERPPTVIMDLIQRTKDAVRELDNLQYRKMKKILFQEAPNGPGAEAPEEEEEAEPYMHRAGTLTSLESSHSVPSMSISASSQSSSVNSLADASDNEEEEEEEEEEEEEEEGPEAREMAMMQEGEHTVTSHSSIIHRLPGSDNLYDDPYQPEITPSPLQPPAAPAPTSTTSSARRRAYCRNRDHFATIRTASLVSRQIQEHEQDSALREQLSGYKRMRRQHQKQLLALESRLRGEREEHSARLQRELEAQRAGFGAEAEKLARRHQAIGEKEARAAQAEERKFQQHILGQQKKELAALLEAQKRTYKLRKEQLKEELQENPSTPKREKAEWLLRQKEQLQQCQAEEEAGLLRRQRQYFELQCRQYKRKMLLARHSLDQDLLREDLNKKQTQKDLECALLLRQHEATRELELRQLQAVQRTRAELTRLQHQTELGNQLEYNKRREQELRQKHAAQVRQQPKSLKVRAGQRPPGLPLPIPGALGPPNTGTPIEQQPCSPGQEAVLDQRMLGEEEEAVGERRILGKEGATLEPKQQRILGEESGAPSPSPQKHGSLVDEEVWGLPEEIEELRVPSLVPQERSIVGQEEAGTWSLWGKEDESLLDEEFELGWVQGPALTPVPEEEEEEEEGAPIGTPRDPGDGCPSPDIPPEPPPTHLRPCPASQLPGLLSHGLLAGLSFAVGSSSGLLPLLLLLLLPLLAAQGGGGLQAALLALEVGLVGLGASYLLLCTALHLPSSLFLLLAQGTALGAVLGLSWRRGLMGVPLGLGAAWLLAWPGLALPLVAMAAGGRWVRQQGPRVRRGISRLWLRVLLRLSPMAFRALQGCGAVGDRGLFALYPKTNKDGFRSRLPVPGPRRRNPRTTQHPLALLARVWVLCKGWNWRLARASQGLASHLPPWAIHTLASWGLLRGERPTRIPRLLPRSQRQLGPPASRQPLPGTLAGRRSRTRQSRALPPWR
From the text: as §1

T1 sequence (Q8WU08 whole entry): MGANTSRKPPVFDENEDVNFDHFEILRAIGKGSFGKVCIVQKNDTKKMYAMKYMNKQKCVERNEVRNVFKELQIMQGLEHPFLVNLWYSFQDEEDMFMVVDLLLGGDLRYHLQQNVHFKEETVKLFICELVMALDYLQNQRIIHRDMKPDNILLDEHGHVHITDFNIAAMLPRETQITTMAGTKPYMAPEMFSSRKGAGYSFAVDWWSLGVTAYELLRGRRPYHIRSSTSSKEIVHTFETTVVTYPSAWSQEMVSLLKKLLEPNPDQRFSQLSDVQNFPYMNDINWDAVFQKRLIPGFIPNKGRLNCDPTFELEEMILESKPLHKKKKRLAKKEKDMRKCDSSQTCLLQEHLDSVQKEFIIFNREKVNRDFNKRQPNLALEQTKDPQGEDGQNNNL

| SMILES | % Ctrl, YANK1 (panel of 442 kinases [1]) [% Ctrl] | % Ctrl, TAOK2 (panel of 442 kinases [2]) [% Ctrl] |
| --- | --- | --- |
| COc1cc(C(=O)N2CCC(N3CCN(C)CC3)CC2)ccc1Nc1ncc2c(n1)N(C1CCCC1)c1ccccc1C(=O)N2C [Compound 25, 11-cyclopentyl-2-((2-methoxy-4-(4-(4-methylpiperazin-1-yl)piperidine-1-carbonyl)phenyl)amino)-5-methyl-5H-benzo[e]pyrimido[5,4-b][1,4]diazepin-6(11H)-one] | 100 | 74 |
| CCOc1cc(C(=O)N2CCC(N3CCN(C)CC3)CC2)ccc1Nc1ncc2c(n1)N(C1CCCC1)c1ccccc1C(=O)N2C [Compound 26] | 100 | 78 |
| COc1cc(C(=O)N2CCC(N3CCN(C)CC3)CC2)ccc1Nc1ncc2c(n1)N1CCc3cccc(c31)C(=O)N2C [Compound 24] | 100 | 100 |
| COc1cc(C(=O)N2CCC(N3CCN(C)CC3)CC2)ccc1Nc1ncc2c(n1)N(C)c1ccccc1C(=O)N2C [15 (LRRK2-IN-1)] | 100 | 65 |
